Measurements reported in article PMC4269305, “The impact of P-gp functionality on non-steady state relationships between CSF and brain extracellular fluid” (Journal of Pharmacokinetics and Pharmacodynamics, 2013).

How the values were obtained:
[1] = Plasma protein binding by Centrifree ultrafiltration; format: in vitro ADME; details: male, Wistar WU, rat, plasma (from dosed rats and from spiked blank blood); linear; not affected by co-administration of tariquidar
Experimental: […]. […] All blood samples were temporarily stored in heparin (10 IU) coated Eppendorf cups. […]. The spiked blood samples were then incubated in a shaking water bath at 37 °C for 30 min.
Plasma protein binding was determined with Centrifree® ultrafiltration devices (Millipore BV, Etten-Leur, the Netherlands). All procedures were performed according to the user’s manual. The ultrafiltrate was diluted ten times with saline before the analysis.

pKa and ionization = format: physicochemical
Text: Therefore, based on our data, it appears that quinidine is also transported by other transporters at the BBB and BCSFB, in the direction of the brain. However, there is no direct information in literature to support this. […] The question remains how this relates to the in vivo situation, like ours. […] OCTs have been localized both at the BBB [66], as well as at the BCSFB [67].

Na^+-K^+-ATPase = details: cited from earlier work
P-gp = system: P-gp; parameters: method as in PMID 11212278; details: cited from earlier work
[2] = parameters: method as in PMID 18632828, PMID 21199574; details: 15 mg/kg tariquidar; up to 3 h after administration; cited from earlier work

Compound	fraction unbound at 30 min [1]	% ionized (pKa and ionization; pH 7.3) [%]	% ionized (pKa and ionization; pH 7.4) [%]	reported IC50 for inhibition of Na+-K+-ATPase activity (Na^+-K^+-ATPase)	half-maximum inhibition constant (IC50) for P-gp (P-gp)	plasma and brain concentrations relative to the IC50 value (fold higher) [2]
C=C[C@H]1C[N@@]2CC[C@H]1C[C@@H]2[C@@H](O)c1ccnc2ccc(OC)cc12 [quinidine, Quinidine]	0.135	80	76	~ 30 μg/ml		
COc1cc2c(cc1OC)CN(CCc1ccc(NC(=O)c3cc(OC)c(OC)cc3NC(=O)c3cnc4ccccc4c3)cc1)CC2 [tariquidar, Tariquidar]					approximately 25 ng/ml	over 50 -fold
